# Patent US6610309B2, “Therapeutic composition comprising an antigen or an in vivo generator of a compound comprising an amino acid sequence” (Societe d'Exploitation de Produits pour les Industries …, priority 1995, dated 2003)
# Like-named read-outs stand apart in the source and are kept apart here.
# Key:
# mice [1] = details: in vivo, sc
# Description: (§1) The examples were performed on OF1 mice whose average weight was between 18 and 20 g.
# (§2) The therapeutic compositions comprised Sigma Grade V bovine serum albumin (BSA) as antigen.
# (§3) The therapeutic compositions were injected subcutaneously.
# A therapeutic composition 100 μl in volume, comprising 50 μg of antigen, was injected into various batches of mice each comprising 5 mice. The local reactions (lesions and granulomae) were evaluated on D8 and D35.
# anti-BSA antibodies = assay type: in vivo, OF1 mice; details: last dilution above background noise; for anti-BSA antibody/ primary response (D28) / anti-BSA antibody/ primary response (D14): 50 μg BSA in 100 μl s.c. on D0
# Description: as §1
# The results expressed are an average of the results obtained on 10 mice.
# as §2, §3
# The humoral immune response was determined by assay of the total IgG and of the total IgG1, according to the ELISA method.
# The antibody levels mentioned in the examples correspond to the last dilution above the background noise.
# Therapeutic compositions (or doses) of 100 μl each, comprising 50 μg of BSA, are prepared.
# These therapeutic compositions were injected into the mice on D0 (i.e. the day of injection).
# The level of anti-BSA antibodies was determined 14 and 28 days after the injection (primary response).
# On D28, the same therapeutic composition was injected into the same mice.
# The level of anti-BSA antibodies was determined on D42 and D56.
# IgG2a = test: Cell response, comparison of calcium salts (Example 4); assay type: in vivo, OF1 mice; details: 0.5 mg of calcium salt, 50 μg antigen, 100 μl s.c.; injection repeated on D28; antibodies assayed on D42
# Description: as §3
# (§4) The antibodies were assayed 42 days after the vaccination.
# (§5) Injection of the therapeutic composition was repeated on D28. The antibodies were assayed on D42.
# total IgG and total IgG1 = test: Humoral response, comparison of calcium salts (Example 4); assay type: in vivo, OF1 mice; details: 0.5 mg of calcium salt, 50 μg antigen, 100 μl s.c.; injection repeated on D28; antibodies assayed on D42
# Description: as §3, §4, §5
# mice [2] = details: 0.5 mg of calcium salt, 50 μg antigen, 100 μl s.c.; observed during the tests of Example 4
# Description: as §3
# Each therapeutic composition, 100 μl in volume, contained 50 μg of antigen and, except for the control, 0.5 mg of a calcium salt, such that the calcium concentration of each composition was 2.7 mg.
# as §5
# [3] = adjuvant 1 mg/dose, 50 μg BSA in 100 μl s.c. on D0, repeated on D28
# [4] = adjuvant 0.5 mg/dose, 50 μg BSA s.c. on D0, repeated on D28
# [5] = adjuvant 3 mg/dose, 50 μg BSA s.c. on D0, repeated on D28
# [6] = adjuvant 2 mg/dose, 50 μg BSA s.c. on D0, repeated on D28
Compound,"local reactions (D8), Mouse No. 2 (mice [1])","local reactions (D8), Mouse No. 3 (mice [1])","local reactions (D8), Mouse No. 4 (mice [1])","local reactions (D8), Mouse No. 5 (mice [1])","local reactions (D35), Mouse No. 1 (mice [1])","local reactions (D35), Mouse No. 2 (mice [1])","local reactions (D35), Mouse No. 3 (mice [1])","local reactions (D35), Mouse No. 4 (mice [1])","local reactions (D35), Mouse No. 5 (mice [1])","local reactions (D8), Mouse No. 1 (mice [1])",Cell response (IgG2a),Humoral response (total IgG and total IgG1),other results
O=P([O-])([O-])OCC(O)CO.[Mn+2] (centres unmarked) [GlyMn],+,++,+,−,−,+,+,+,+,,,,
O=C([O-])[C@H](O)[C@@H](O)[C@H](O)[C@H](O)CO.[K+] [GluK],−,−,−,−,−,−,−,−,−,−,,,
O=C([O-])C(O)C(O)C(O)C(O)C(O)CO.O=C([O-])C(O)C(O)C(O)C(O)C(O)CO.[Zn+2] (centres unmarked) [GluhpZn],,,,,,,,,,,,,"anti-BSA antibody/ primary response (D42) (anti-BSA antibodies; [3]): 64,000; anti-BSA antibody/ primary response (D56) (anti-BSA antibodies; [3]): 64,000; anti-BSA antibody/ primary response (D28) (anti-BSA antibodies; adjuvant 1 mg/dose): 6000; anti-BSA antibody/ primary response (D14) (anti-BSA antibodies; adjuvant 1 mg/dose, average of 10 mice): 8000"
O=C([O-])[C@H](O)[C@@H](O)[C@H](O)[C@H](O)CO.O=C([O-])[C@H](O)[C@@H](O)[C@H](O)[C@H](O)CO.[Zn+2] [GluZn],,,,,,,,,,,,,"anti-BSA antibody/ primary response (D14) (anti-BSA antibodies; adjuvant 0.5 mg/dose): 16,000; anti-BSA antibody/ primary response (D28) (anti-BSA antibodies; adjuvant 0.5 mg/dose): 6000; anti-BSA antibody/ primary response (D42) (anti-BSA antibodies; [4]): 96,000; anti-BSA antibody/ primary response (D56) (anti-BSA antibodies; [4]): 96,000"
"[Cl][Mn][Cl] [MnCl^2+, reference compound]",,,,,+++,,,,,+++,,,
O=C([O-])[C@H](O)[C@@H](O)[C@H](O)[C@H](O)CO.O=C([O-])[C@H](O)[C@@H](O)[C@H](O)[C@H](O)CO.[Ca+2] [GluCa],−,−,−,−,−,−,−,−,−,−,"32,000","128,000","anti-BSA antibody/ primary response (D14) (anti-BSA antibodies; adjuvant 3 mg/dose): 116,000; anti-BSA antibody/ primary response (D28) (anti-BSA antibodies; adjuvant 3 mg/dose): 8000; anti-BSA antibody/ primary response (D42) (anti-BSA antibodies; [5]): 128,000; anti-BSA antibody/ primary response (D56) (anti-BSA antibodies; [5]): 96,000"
O=P([O-])([O-])O.[Ca+2] [CaHPO4],,,,,,,,,,,"10,000","64,000",
O=C([O-])[O-].[Ca+2] [CaCO3],,,,,,,,,,,4000,"32,000",
O=P([O-])([O-])OCC(O)CO.[Ca+2] (centres unmarked) [GlyCa],,,,,,,,,,,,,"anti-BSA antibody/ primary response (D14) (anti-BSA antibodies; adjuvant 2 mg/dose): 4000; anti-BSA antibody/ primary response (D28) (anti-BSA antibodies; adjuvant 2 mg/dose): 2000; anti-BSA antibody/ primary response (D42) (anti-BSA antibodies; [6]): 64,000; anti-BSA antibody/ primary response (D56) (anti-BSA antibodies; [6]): 64,000"
[Ca+2].[Cl-].[Cl-] [CaCl2],,,,,,,,,,,"24,000","64,000",lesions induced (mice [2]): very large lesions
